Reference: patent US20230114728A1 (Venatorx Pharmaceuticals, Inc., priority 2019, published 2023)
In brackets after ≈: the same amount, converted by molar mass. Like-named read-outs stand apart in the source and are kept apart here.

What was measured:
N. gonorrhoeae WHO K = experiment: Liquid broth MIC in Fastidious broth; type: cell-based; details: Neisseria gonorrhoeae
Method in brief: (§1)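 Broth microdilution in Fastidious broth with 2-fold compound series; inoculum from 24 h chocolate agar colonies, 5×10^5 CFU/mL start. Incubated ~24 hours at 36° C, 5% CO2. MIC read visually as lowest concentration giving <10% growth versus full-growth wells; strains carry mosaic PBP2.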

N. gonorrhoeae WHO L = experiment: Liquid broth MIC in Fastidious broth; type: cell-based; details: Neisseria gonorrhoeae, Fastidious broth
Method in brief: (§2)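 Colonies were swabbed from chocolate agar after 24 h growth and standardised by optical density at 600 nm. Compounds were serially diluted twofold in Fastidious broth, and bacteria added to give 5×10^5 CFU/mL. After about 24 h at 36 °C in 5% CO2, the lowest concentration allowing under 10% growth was taken as MIC.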

N. gonorrhoeae H041 = experiment: Liquid broth MIC in Fastidious broth; type: cell-based; details: Neisseria gonorrhoeae
Method in brief: as §1

N. gonorrhoeae WHO Z = experiment: Liquid broth MIC in Fastidious broth; type: cell-based; details: Neisseria gonorrhoeae
Method in brief: as §1

[1] = test system: N. gonorrhoeae ATCC 49226; experiment: Liquid broth MIC in Fastidious broth; type: cell-based; details: Neisseria gonorrhoeae, ATCC49226, Fastidious broth
Method in brief: as §2

N. gonorrhoeae WHO Q = experiment: Liquid broth MIC in Fastidious broth; type: cell-based; details: Neisseria gonorrhoeae
Method in brief: as §1

N. gonorrhoeae FA1090 = experiment: Liquid broth MIC in Fastidious broth; type: cell-based; details: Neisseria gonorrhoeae, Fastidious broth
Method in brief: as §2

N. gonorrhoeae WHO G = experiment: Liquid broth MIC in Fastidious broth; type: cell-based; details: Neisseria gonorrhoeae, Fastidious broth
Method in brief: as §2

P. aeruginosa PBP3 = target: T1, P. aeruginosa PBP3 (Pseudomonas aeruginosa, UniProt G3XD46); experiment: Bocillin-FL fluorescence polarization competition binding assay, P. aeruginosa PBP3; details: fluorescence polarization competition binding assay using Bocillin-FL
T1 construct: made in house
T1 sequence (G3XD46 whole entry): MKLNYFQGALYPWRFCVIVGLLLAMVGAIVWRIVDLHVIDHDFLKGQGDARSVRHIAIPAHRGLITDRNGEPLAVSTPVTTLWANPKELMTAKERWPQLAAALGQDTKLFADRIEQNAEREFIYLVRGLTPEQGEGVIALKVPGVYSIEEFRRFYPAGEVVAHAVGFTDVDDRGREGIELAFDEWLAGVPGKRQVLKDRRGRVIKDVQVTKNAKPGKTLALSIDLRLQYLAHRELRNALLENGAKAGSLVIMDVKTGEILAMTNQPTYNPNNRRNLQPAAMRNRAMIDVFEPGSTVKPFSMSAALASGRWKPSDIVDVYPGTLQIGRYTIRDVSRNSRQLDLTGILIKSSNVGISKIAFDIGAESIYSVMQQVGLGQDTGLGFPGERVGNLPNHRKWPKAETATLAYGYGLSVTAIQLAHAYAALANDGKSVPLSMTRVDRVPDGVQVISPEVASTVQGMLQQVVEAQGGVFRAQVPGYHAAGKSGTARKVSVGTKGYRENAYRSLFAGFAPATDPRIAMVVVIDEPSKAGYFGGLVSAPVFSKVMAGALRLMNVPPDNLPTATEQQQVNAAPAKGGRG
Method in brief: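 Binding of boronic acid inhibitors to purified Pseudomonas aeruginosa (PA01) PBP3 was measured by fluorescence polarization competition with Bocillin-FL, a fluorescent penicillin V. Reactions of 80 μl contained 0.75 μM PBP3 and 0.1 μM Bocillin-FL in 50 mM Hepes (pH 8.0), 300 mM NaCl and 5% (v/v) glycerol, in black 384-well plates. FP (Excitation 490 nm, Emission 520 nm) was read for up to 60 minutes. EC50 is the concentration that halves PBP-bound Bocillin-FL.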

E. coli K12 PBP3 = target: T2, E. coli K12 PBP3 (Escherichia coli, UniProt P0AD68); experiment: biochemical; type: binding
T2 construct: made in house
T2 sequence (P0AD68 1-577): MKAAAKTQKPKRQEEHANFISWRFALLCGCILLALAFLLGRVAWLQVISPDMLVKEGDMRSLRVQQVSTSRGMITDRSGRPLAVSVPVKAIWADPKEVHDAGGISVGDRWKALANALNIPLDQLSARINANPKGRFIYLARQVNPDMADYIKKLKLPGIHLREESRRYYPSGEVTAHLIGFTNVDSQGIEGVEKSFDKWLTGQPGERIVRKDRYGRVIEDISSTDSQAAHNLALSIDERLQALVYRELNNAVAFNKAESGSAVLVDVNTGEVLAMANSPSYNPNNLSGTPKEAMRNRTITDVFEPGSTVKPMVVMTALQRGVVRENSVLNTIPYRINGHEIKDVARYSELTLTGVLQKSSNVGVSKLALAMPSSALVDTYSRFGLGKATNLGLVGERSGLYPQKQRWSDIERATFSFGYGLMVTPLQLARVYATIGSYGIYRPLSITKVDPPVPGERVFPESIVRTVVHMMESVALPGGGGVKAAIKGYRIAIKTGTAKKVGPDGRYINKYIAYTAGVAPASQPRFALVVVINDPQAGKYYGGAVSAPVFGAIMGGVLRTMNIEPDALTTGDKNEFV
Method in brief: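 Fluorescence polarization (ex 490/em 520 nm) competition of inhibitors against Bocillin-FL at 0.1 μM, read up to 60 min. Final PBP levels: E. coli PBP3 1.5 μM; A. baumannii PBP2 2.5 μM, PBP3 0.2 μM in Tris pH 8.0/NaCl/glycerol/Tween 20; N. gonorrhoeae PBP2 […] in Hepes pH 8.0/NaCl/glycerol. EC50 = concentration halving PBP-bound Bocillin-FL.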

[2] = read-out: Minimum Inhibitory Concentration, N. gonorrhoeae WHO K
[3] = N. gonorrhoeae strain WHO L, read-out: Minimum Inhibitory Concentration, N. gonorrhoeae WHO L
[4] = H041, read-out: Minimum Inhibitory Concentration, N. gonorrhoeae H041
[5] = read-out: Minimum Inhibitory Concentration, N. gonorrhoeae WHO Z
[6] = N. gonorrhoeae strain ATCC 49226, read-out: Minimum Inhibitory Concentration, N. gonorrhoeae ATCC 49226
[7] = read-out: Minimum Inhibitory Concentration, N. gonorrhoeae WHO Q
[8] = N. gonorrhoeae strain FA1090, read-out: Minimum Inhibitory Concentration, N. gonorrhoeae FA1090
[9] = N. gonorrhoeae strain WHO G, read-out: Minimum Inhibitory Concentration, N. gonorrhoeae WHO G
[10] = read-out: Minimum Inhibitory Concentration, WHO K
[11] = N. gonorrhoeae WHO L, read-out: Minimum Inhibitory Concentration, WHO L
[12] = H041, read-out: Minimum Inhibitory Concentration, H041
[13] = read-out: Minimum Inhibitory Concentration, WHO Z
[14] = N. gonorrhoeae ATCC 49226, read-out: Minimum Inhibitory Concentration, ATCC 49226
[15] = read-out: Minimum Inhibitory Concentration, WHO Q
[16] = N. gonorrhoeae FA1090, read-out: Minimum Inhibitory Concentration, FA1090
[17] = N. gonorrhoeae WHO G, read-out: Minimum Inhibitory Concentration, WHO G

SMILES | MIC (N. gonorrhoeae WHO K; [2]) [µg/mL] | MIC (N. gonorrhoeae WHO L; [3]) [µg/mL] | MIC (N. gonorrhoeae H041; [4]) [µg/mL] | MIC (N. gonorrhoeae WHO Z; [5]) [µg/mL] | MIC [1, 6] [µg/mL] | MIC (N. gonorrhoeae WHO Q; [7]) [µg/mL] | MIC (N. gonorrhoeae FA1090; [8]) [µg/mL] | MIC (N. gonorrhoeae WHO G; [9]) [µg/mL] | P. aeruginosa PBP3 Potency (P. aeruginosa PBP3) | EC50 (E. coli K12 PBP3) [µM] | MIC (N. gonorrhoeae WHO K; [10]) [µg/mL] | MIC (N. gonorrhoeae WHO L; [11]) [µg/mL] | MIC (N. gonorrhoeae H041; [12]) [µg/mL] | MIC (N. gonorrhoeae WHO Z; [13]) [µg/mL] | MIC [1, 14] [µg/mL] | MIC (N. gonorrhoeae WHO Q; [15]) [µg/mL] | MIC (N. gonorrhoeae FA1090; [16]) [µg/mL] | MIC (N. gonorrhoeae WHO G; [17]) [µg/mL]
CCN1CCN(C(=O)NC(C(=O)N[C@H]2Cc3cccc(C(=O)O)c3OB2O)c2ccc(C(=O)O)c(O)c2)C(=O)C1=O (stereo partly drawn) [Example 196, (3R)-3-(2-(4-carboxy-3-hydroxyphenyl)-2-(4-ethyl-2,3-dioxopiperazine-1-carboxamido)acetamido)-2-hydroxy-3,4-dihydro-2H-benzo[e][1,2]oxaborinine-8-carboxylic acid] | 4 to 8 (≈ 7.04 to 14.1 µM) | 16 to 32 (≈ 28.2 to 56.3 µM) | 16 to 32 (≈ 28.2 to 56.3 µM) | 4 to 8 (≈ 7.04 to 14.1 µM) | 4 to 8 (≈ 7.04 to 14.1 µM) | 4 to 8 (≈ 7.04 to 14.1 µM) | 0.25 to 0.5 (≈ 0.44 to 0.88 µM) | 1 to 2 (≈ 1.76 to 3.52 µM) | D (D represents a potency <10 μM) | < 30 | – | – | – | – | – | – | – | –
CCN1CCN(C(=O)NC(C(=O)N[C@H]2Cc3cccc(C(=O)O)c3OB2O)c2cc(NS(N)(=O)=O)ccc2F)C(=O)C1=O (stereo partly drawn) [Example 197, (3R)-3-(2-(4-ethyl-2,3-dioxopiperazine-1-carboxamido)-2-(2-fluoro-5-(sulfamoylamino)phenyl)acetamido)-2-hydroxy-3,4-dihydro-2H-benzo[e][1,2]oxaborinine-8-carboxylic acid] | 16 to 32 (≈ 25.8 to 51.6 µM) | > 64 | 16 to 32 (≈ 25.8 to 51.6 µM) | 16 to 32 (≈ 25.8 to 51.6 µM) | 16 to 32 (≈ 25.8 to 51.6 µM) | 16 to 32 (≈ 25.8 to 51.6 µM) | 0.25 to 0.5 (≈ 0.403 to 0.806 µM) | 4 to 8 (≈ 6.45 to 12.9 µM) | D (D represents a potency <10 μM) | < 30 | – | – | – | – | – | – | – | –
NS(=O)(=O)Nc1ccc(F)c(C(NC(=O)N2CCN(CCF)C(=O)C2=O)C(=O)N[C@H]2Cc3cccc(C(=O)O)c3OB2O)c1 (stereo partly drawn) [Example 198, (3R)-3-(2-(2-fluoro-5-(sulfamoylamino)phenyl)-2-(4-(2-fluoroethyl)-2,3-dioxopiperazine-1-carboxamido)acetamido)-2-hydroxy-3,4-dihydro-2H-benzo[e][1,2]oxaborinine-8-carboxylic acid] | 16 to 32 (≈ 25.1 to 50.1 µM) | > 64 | 16 to 32 (≈ 25.1 to 50.1 µM) | 16 to 32 (≈ 25.1 to 50.1 µM) | 16 to 32 (≈ 25.1 to 50.1 µM) | 16 to 32 (≈ 25.1 to 50.1 µM) | 0.25 to 0.5 (≈ 0.392 to 0.783 µM) | 4 to 8 (≈ 6.27 to 12.5 µM) | D (D represents a potency <10 μM) | < 30 | – | – | – | – | – | – | – | –
CCN1CCN(C(=O)NC(C(=O)N[C@H]2Cc3cccc(C(=O)O)c3OB2O)c2ccc(C(=O)O)c(Cl)c2Cl)C(=O)C1=O (stereo partly drawn) [Example 201, (3R)-3-(2-(4-carboxy-2,3-dichlorophenyl)-2-(4-ethyl-2,3-dioxopiperazine-1-carboxamido)acetamido)-2-hydroxy-3,4-dihydro-2H-benzo[e][1,2]oxaborinine-8-carboxylic acid] | – | – | – | – | – | – | – | – | D (D represents a potency <10 μM) | < 30 | 16 to 32 (≈ 25.8 to 51.5 µM) | > 64 | > 64 | 16 to 32 (≈ 25.8 to 51.5 µM) | 4 to 8 (≈ 6.44 to 12.9 µM) | 16 to 32 (≈ 25.8 to 51.5 µM) | 1 to 2 (≈ 1.61 to 3.22 µM) | 4 to 8 (≈ 6.44 to 12.9 µM)
CS(=O)(=O)N1CCN(C(=O)NC(C(=O)N[C@H]2Cc3ccc(F)c(C(=O)O)c3OB2O)c2c(Cl)cc(O)c(O)c2F)C1=O (stereo partly drawn) [Example 208, (3R)-3-(2-(6-chloro-2-fluoro-3,4-dihydroxyphenyl)-2-(3-(methylsulfonyl)-2-oxoimidazolidine-1-carboxamido)acetamido)-7-fluoro-2-hydroxy-3,4-dihydro-2H-benzo[e][1,2]oxaborinine-8-carboxylic acid] | – | – | – | – | – | – | – | – | D (D represents a potency <10 μM) | < 30 | > 64 | > 64 | > 64 | > 64 | > 64 | > 64 | 4 to 8 (≈ 6.32 to 12.6 µM) | 16 to 32 (≈ 25.3 to 50.6 µM)
CCN1CCN(C(=O)NC(C(=O)N[C@H]2Cc3cccc(C(=O)O)c3OB2O)c2cc(C#N)c(O)cc2F)C(=O)C1=O (stereo partly drawn) [Example 209, (3R)-3-(2-(5-cyano-2-fluoro-4-hydroxyphenyl)-2-(4-ethyl-2,3-dioxopiperazine-1-carboxamido)acetamido)-2-hydroxy-3,4-dihydro-2H-benzo[e][1,2]oxaborinine-8-carboxylic acid] | – | – | – | – | – | – | – | – | D (D represents a potency <10 μM) | < 30 | 16 to 32 (≈ 28.2 to 56.4 µM) | 16 to 32 (≈ 28.2 to 56.4 µM) | 16 to 32 (≈ 28.2 to 56.4 µM) | 4 to 8 (≈ 7.05 to 14.1 µM) | 4 to 8 (≈ 7.05 to 14.1 µM) | 16 to 32 (≈ 28.2 to 56.4 µM) | 0.25 to 0.5 (≈ 0.441 to 0.881 µM) | 4 to 8 (≈ 7.05 to 14.1 µM)
CCN1CCN(C(=O)N[C@@H](C(=O)N[C@H]2Cc3ccc(F)c(C(=O)O)c3OB2O)c2ccc(O)c(O)c2)C(=O)C1=O [Example 211, (R)-3-((R)-2-(3,4-dihydroxyphenyl)-2-(4-ethyl-2,3-dioxopiperazine-1-carboxamido)acetamido)-7-fluoro-2-hydroxy-3,4-dihydro-2H-benzo[e][1,2]oxaborinine-8-carboxylic acid] | – | – | – | – | – | – | – | – | D (D represents a potency <10 μM) | < 30 | 16 to 32 (≈ 28.7 to 57.3 µM) | > 64 | 16 to 32 (≈ 28.7 to 57.3 µM) | 16 to 32 (≈ 28.7 to 57.3 µM) | 16 to 32 (≈ 28.7 to 57.3 µM) | 16 to 32 (≈ 28.7 to 57.3 µM) | 4 to 8 (≈ 7.16 to 14.3 µM) | 16 to 32 (≈ 28.7 to 57.3 µM)
O=C(O)c1cccc2c1OB(O)[C@@H](NC(=O)C(NC(=O)N1CCN(C3CNC3)C(=O)C1=O)c1c(F)cc(O)cc1F)C2 (stereo partly drawn) [Example 212, (3R)-3-(2-(4-(azetidin-3-yl)-2,3-dioxopiperazine-1-carboxamido)-2-(2,6-difluoro-4-hydroxyphenyl)acetamido)-2-hydroxy-3,4-dihydro-2H-benzo[e][1,2]oxaborinine-8-carboxylic acid] | – | – | – | – | – | – | – | – | D (D represents a potency <10 μM) | < 30 | > 64 | > 64 | > 64 | > 64 | 16 to 32 (≈ 27.2 to 54.5 µM) | > 64 | 1 to 2 (≈ 1.7 to 3.41 µM) | 16 to 32 (≈ 27.2 to 54.5 µM)
CCN1CCN(C(=O)NC(C(=O)N[C@H]2Cc3cccc(C(=O)O)c3OB2O)c2c(F)cc(NC(=O)NC)cc2F)C(=O)C1=O (stereo partly drawn) [Example 213, (3R)-3-(2-(2,6-difluoro-4-(3-methylureido)phenyl)-2-(4-ethyl-2,3-dioxopiperazine-1-carboxamido)acetamido)-2-hydroxy-3,4-dihydro-2H-benzo[e][1,2]oxaborinine-8-carboxylic acid] | – | – | – | – | – | – | – | – | D (D represents a potency <10 μM) | < 30 | > 64 | > 64 | > 64 | 16 to 32 (≈ 26 to 51.9 µM) | 4 to 8 (≈ 6.49 to 13 µM) | > 64 | < 0.125 | 1 to 2 (≈ 1.62 to 3.24 µM)
